According to US20150352134A1, “COMPOSITION FOR TOPICAL SKIN APPLICATION CONTAINING GINSENOSIDE F2 DERIVED FROM HYDROPONIC GINSENG” (AMOREPACIFIC CORPORATION, priority 2012, published 2015):
Values belong to the compound of their own block, whether it stands above or below them.

Columns and labels:
[1] = system: tyrosinase; assay: Tyrosinase inhibitory effect; type: biochemical, mushrooms; conditions: 37° C., absorbance 475 nm
Procedure: The tyrosinase as used herein is an enzyme extracted from mushrooms and purchased from Sigma-Aldrich. Firstly, tyrosine as a substrate is dissolved in distilled water to prepare a 0.3 mg/mL solution, which is added dropwise to a test tube at an amount of 1.0 mL each time. To the solution are added 1.0 mL of a potassium phosphate buffer solution (0.1 mol, pH 6.8) and 0.7 mL of distilled water.
0.2 mL of the sample solution is added to the reactant solution and then allowed to have a reaction in a thermostat container at 37° C. for 10 minutes. In this regards, the control is the reactant solution containing 0.2 mL of a solvent alone in place of each sample solution. The positive control uses ascorbic acid. 0.1 mL of a 2500 unit/mL tyrosinase solution is added to the reactant solution, which is then allowed to have a reaction again in a thermostat container at 37° C. for 10 minutes. The test tube filled with the reactant solution is put into an ice water to cause quenching and thus stop the reaction. The absorbance at 475 nm is measured with a photoelectric spectrophotometer. The tyrosinase inhibitory effect is calculated according to the following mathematical formula 3.

[2] = target: T1, elastase type III (Sus scrofa, UniProt P00772); assay: Elastase inhibitory effect; type: biochemical; conditions: EGCG 250 μM; 25° C., 15 minutes, absorbance 415 nm
T1 construct: purchased Sigma-Aldrich E0127
T1 sequence (P00772 27-266): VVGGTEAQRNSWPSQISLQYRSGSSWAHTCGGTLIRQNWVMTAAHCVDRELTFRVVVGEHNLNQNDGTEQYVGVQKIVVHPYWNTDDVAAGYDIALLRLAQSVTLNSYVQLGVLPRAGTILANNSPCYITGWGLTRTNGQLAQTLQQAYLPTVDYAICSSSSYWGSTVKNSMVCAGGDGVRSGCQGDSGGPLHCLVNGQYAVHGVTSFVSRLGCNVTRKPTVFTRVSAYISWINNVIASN
Procedure: The elastase inhibitory function of the ginsenoside F2 is measured in comparison with that of EGCG. The elastase and the substrate used herein are purchased from Sigma-Aldrich, U.S.A. (Cat. No. E0127).
The elastase inhibitory function is measured according to the following method.
In a 96-well plate, ginsenoside F2 (200 μL) and 50 μL of a 20 μg/mL elastase type III solution are mixed with a […] tris-HCL buffer solution (pH 8.0). The positive control is EGCG 250 μM, and the negative control which is a non-treated group is distilled water. Then, 100 μL of 0.4514 mg/mL N-succinyl-ala-ala-ala-p-nitroanilide prepared with the buffer solution is added to the mixture and allowed to react at 25° C. for 15 minutes. After completion of the reaction, the absorbance at 415 nm was measured. The blank test is performed in the same manner as described above to achieve calibration verification.
The elastase inhibitory function is calculated according to the following mathematical formula 1, and the results are presented in Table 2.
Elastase inhibition rate (%)={1−(C−D)/(A−B)}×100 [Mathematical Formula 1]
A: Absorbance at 415 nm with enzyme and no test substance.
B: Absorbance at 415 nm with no test substance and no enzyme.
C: Absorbance at 415 nm with test substance and enzyme.
D: Absorbance at 415 nm with test substance and no enzyme.

[3] = system: tyrosinase; assay: Tyrosinase expression in melanocytes (Western Blot); type: cell-based; conditions: 501me1 cell line, IBMX 100 μM, ginsenoside 10 ppm
Procedure: (§1) 501me1 cell line is injected in each well of a 6-well microtiter plate at a rate of 500,000 cells/well. The cell line in each well is treated with 0.1% of DMSO as the negative control group, 100 μM of IBMX as the positive control group, or ginsenoside 10 ppm of F2 as the test group, and cultured at 37° C. for 24 hours, 48 hours, or 72 hours, to obtain proteins. The proteins thus obtained are subjected to Western Blot using MITF and tyrosinase antibodies. Protein extraction and Western Blot are performed using the standard methods known in the art.

[4] = system: mouse with vitiligo (C57b1/6-Mitf^mi-vit); assay: Grey hair prevention: melanin in newly grown hair of mouse with vitiligo; type: in vivo; conditions: applied twice a day, about 3 weeks, 50 mM IBMX, 2.5% ginsenoside F2
Procedure: A mouse with vitiligo (C57b1/6-Mitf^mi-vit) is purchased from The Jackson Lab in U.S.A. The testing method on the grey hair inhibitory effect using a mouse with lots of grey hair is carried out as follows. A 12-week old mouse is subjected to depilation on the back side. The area of the depilated region is controlled to be the same to every object. From the next day of the depilation, the grey hair inhibitory substances are applied on the depilated region twice a day. The vehicle for the grey hair inhibitory substances is the mixture of EtOH, 1,3-BG and DW (3:2:5 in volume ratio). The liquid containing the vehicle alone is the negative control, the liquid containing the vehicle in combination with 50 mM IBMX is the positive control, and the liquid containing the vehicle in combination with 2.5% ginsenoside F2 is the test group. When the difference in the grey hair inhibitory effect between the substances is visually recognizable in about 3 weeks, the newly grown hair is collected to measure the quantity of melanin produced in the hair. The quantity of melanin in the hair is measured using esperase (Novozyme) strains that are a protein hydrolase. Esperase is dissolved in a buffer solution (50 mM tris-HCl, 5 mM DTT, pH 9.3) to a concentration of 1 NPU/ml to prepare a reaction buffer. 5 mg of mouse hair is put in 1 ml of the reaction buffer, which is stirred at a speed of 1,000 rpm at 37° C. for 13 hours to cause the reaction and then subjected to a momentary centrifugal isolation to separate the reactant solution from hair. The reactant solution thus obtained is placed in each well of a 96-well plate, and the absorbance at 405 nm is measured to determine the amount of melanin in the reactant solution. When a mouse with vitiligo and lots of grey hair is treated with the negative control substance, the positive control substance, or the test substance, the efficacies are visually observed, and the melanin in hair is quantitatively analyzed.

[5] = system: Melanin-a cells; assay: Melanogenesis promotion in Melanin-a cells; type: cell-based; conditions: 100 μM, 3 days; DMSO (0.1%) = 100
Procedure: Melanin-a cells are injected in a 24-well microtiter plate at a rate of 50,000 cells per well with an RPMI medium containing 5% fetal bovine serum, 100 IU penicillin G, and 0.2 μM TPA. Next day, the cells are treated with ginsenoside F2 as a test substance independently at the final concentration of 10 ppm or 50 ppm. The negative control is treated with 0.1% DMSO, and the positive control is treated with 100 μM IBMX. Then, the cells are cultured at 37° C. for 3 days. The wells of the plate are washed with PBS, and 100 μl of 1N NaOH is added to each well to dissolve melanin in the cells. The absorbance of the dissolved melanin is measured at 405 nm with a microplate reader. The effect of the ginsenoside F2 to promote melanogenesis is evaluated in comparison with that of the control groups.

[6] = system: MITF; assay: MITF expression in melanocytes (Western Blot); type: cell-based; conditions: 501me1 cell line, IBMX 100 μM, ginsenoside 10 ppm
Procedure: as §1

[7] = system: B16/F10 melanoma cells; assay: Melanogenesis inhibition in B16/F10 melanoma cells; type: cell-based; conditions: sample containing 0.001 wt. % of test substance; 3-day cultivation
Procedure: As a test substance, a sample containing 0.001 wt. % of ginsenoside F2 or kojic acid is added to a culture medium of B16/F10 melanoma cells (available from Korean Cell Line Bank) at a predetermined concentration. The culture medium is eliminated after 3-day cultivation. The cells are washed with PBS and dissolved in 1N NaOH. Then, the absorbance at 405 nm is measured. The control is the cells not treated with any test substance. In comparison with the melanin content in the control group, the inhibitory ability of each test substance against melanogenesis is measured. […] [formula]

[8] = system: potassium ion channels (KATP channels); assay: KATP channel opener test: recovery of NIH3T3 proliferation blocked by tolbutamide (WST-1); type: cell-based, mouse; conditions: 10 μM minoxidil after 2.5 mM tolbutamide, 48 hours
Source text: Minoxidil, a treatment for hair loss, is known as a potassium ion channel opener (KATP channel opener) potentially acting on mitochondria and a representative drug used for treatment of androgenic alopecia (hair loss). A testing method used to evaluate the action of minoxidil includes treating with tolbutamide (SIGMA-ALDRICH, T0891) blocking the potassium ion channels (KATP channels) in fibroblasts constituting the corium of scalp to inhibit cell proliferation and then opening the potassium ion channels (KATP channels) to resume the cell proliferation. In order to evaluate the function of the composition of the present invention as a KATP channel opener, the present invention uses a mouse embryonic fibroblast cell line, NIH3T3, as fibroblasts. The cell line is obtained by naturally immortalizing a fibroblast cell line isolated from an NIH Swiss mouse embryo with 3T3 protocol. The cell line is cultured with DMEM (Dulbecco's modified eagle's medium, Gibco BRL, Gaithersburg, Md., U.S.A.) containing 10% FBS (Fetal Bovine Serum) in an incubator under the conditions of 5% CO2 and 37° C. for 24 hours.

[9] = target: T2, 5α-reductase (Homo sapiens, UniProt P31213); assay: 5α-reductase activity inhibition, conversion of [14C]testosterone to DHT in HEK293-5α R2 cells; type: cell-based; conditions: 2 hours
T2 construct: 3×FLAG; expressed in transfected cells; host or cells: HEK293
T2 sequence (P31213 1-254): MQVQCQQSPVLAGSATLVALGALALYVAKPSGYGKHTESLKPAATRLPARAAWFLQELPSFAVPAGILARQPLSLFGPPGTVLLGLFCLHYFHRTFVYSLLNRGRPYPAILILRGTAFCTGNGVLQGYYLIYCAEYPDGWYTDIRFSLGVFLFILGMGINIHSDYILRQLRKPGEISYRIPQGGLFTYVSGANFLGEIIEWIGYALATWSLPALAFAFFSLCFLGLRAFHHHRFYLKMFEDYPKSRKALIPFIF
Procedure: In order to evaluate the inhibitory effect on the activity of 5α-reductase, the conversion rate from [^14C]testosterone to [^14C]dihydrotestosterone (DHT) in HEK293-5α R2 cells is measured. P3×FLAG-CMV-5α R2 is transduced into HEK293 cells, which are cultured in a 24-well plate at a rate of 2.5×10^5 cells per well (Park et al., 2003, JDS. Vol. 31, pp. 191-98). The next day, the used culture medium is replaced with a new culture medium containing an enzyme substrate and an inhibitor. The substrate of the culture medium is 0.05 μCi [^14C]testosterone (Amersham Pharmacia Biotech, UK).
To evaluate the degree of 5α-reductase activity inhibition, the cells are treated with ginsenoside F2 and then cultured in a 5% CO2 incubator at 37° C. for 2 hours. In this regard, the negative control is the group not treated with ginsenoside F2, while the positive control is the group treated with finasteride. Subsequently, the culture medium is collected to extract steroids with 800 μl of ethylacetate, and the supernatant organic solvent phase is isolated and dried. The residue is dissolved in 50 μl of ethylacetate and developed on silica plastic sheet kieselgel 60 F254 using an ethylacetate-hexane (1:1) solvent.
The plastic sheet is dried out in the air and measured in regards to the abundance of isotope using a bath system. The dry plastic sheet together with an X-ray film is put in a bath cassette. After one week, the abundance of isotope of testosterone and dihydrotestosterone remaining on the film is measured to calculate the conversion rate and the inhibition rate according to the following mathematical formulas 5 and 6, respectively.

[10] = system: collagenase (MMP-1); assay: Collagenase (MMP-1) expression in human fibroblasts (ELISA); type: cell-based; conditions: 10 μg/mL for 24 hours; not treated control = 100
Procedure: The ginsenoside F2 of the present invention is measured in regards to the inhibitory effect on the generation of collagenase in comparison with retinoic acid. […] The human fibroblasts are treated with ginsenoside F2 or retinoic acid at a concentration of 10 μg/mL for 24 hours. Then, the cell culture medium is collected. The production yield of collagenase in the collected cell culture medium is measured using a collagenase measurement instrument commercially available (Catalog #. RPN 2610, USA Amersham Pharma Inc.). Firstly, the collected cell culture medium is put in each well of a 96-well plate uniformly coated with the primary collagenase antibodies and then subjected to antigen-antibody reactions in a thermostat container for 3 hours. After 3 hours, the secondary collagenase antibodies coupled to the chromophore groups are put in each well of the 96-well plate and then allowed to react for more 15 minutes. […] The intensity of yellowness in the reaction mixture is varied depending on the progress of the reaction. The absorbance of the yellow-colored 96-well plate is measured at 405 nm with a spectrophotometer, and the expression level of collagenase is calculated according to the following mathematical formula 2. In this regard, the absorbance of the cell culture medium collected from the group not treated with the composition of the present invention is considered as the absorbance of the control. [formula]

[11] = system: procollagen type (I) in fibroblasts; assay: Collagen biosynthesis in fibroblasts (procollagen type (I) ELISA); type: cell-based; conditions: 10 ng/ml, 24 hours; non-treated group = 100%
Procedure: The ginsenoside F2 of the present invention is compared with TGF-β in regards to the effect of promoting biosynthesis of collagen. Firstly, fibroblasts are seeded in 24 wells at a rate of 10^5 per well and cultured until the growth reaches 90%. The fibroblasts are cultured in a non-serum culture medium for 24 hours, treated with each 10 ng/ml of ginsenoside F2 or TGF-β dissolved in the non-serum culture medium, and then cultured in a CO2 incubator for 24 hours. The supernatant liquid is collected to determine an increase or decrease of procollagen using a procollagen type (I) ELISA kit. The collagen synthesis ability is denoted with respect to 100% for the non-treated group.

Tyrosinase inhibition rate (%) [1]: 52%
Compound: O=C1O[C@H]([C@@H](O)CO)C(O)=C1O [Ascorbic acid, ascorbic acid]

Inhibition rate (%) (elastase) [2]: 65%
Compound: O=C(O[C@@H]1Cc2c(O)cc(O)cc2O[C@@H]1c1cc(O)c(O)c(O)c1)c1cc(O)c(O)c(O)c1 [EGCG]

Compound: CC(C)Cn1c(=O)n(C)c(=O)c2[nH]cnc21 [IBMX]
Tyrosinase (Western Blot, in comparison with 100 of the negative control group) ([3]; 24 hrs): 160
Tyrosinase (Western Blot, in comparison with 100 of the negative control group) ([3]; 48 hrs): 149
Tyrosinase (Western Blot, in comparison with 100 of the negative control group) ([3]; 72 hrs): 298
Amount of melanin (%) with respect to control [4]: 105.9%
Yield of Melanin (%) [5]: 120%
MITF (Western Blot, in comparison with 100 of the negative control group) ([6]; 24 hrs): 121
MITF (Western Blot, in comparison with 100 of the negative control group) ([6]; 48 hrs): 98
MITF (Western Blot, in comparison with 100 of the negative control group) ([6]; 72 hrs): 224

Compound: O=c1cc(CO)occ1O [Kojic acid, kojic acid]
Melanogenesis inhibition rate (%) [7]: 53%

Compound: Nc1cc(N2CCCCC2)nc(N)[n+]1[O-] [Minoxidil]
Cell proliferation ability (%) [8]: 132%

Inhibition rate (%) ([9]; 5α-reductase activity): 42.5%
Conversion rate (%) ([9]; testosterone to dihydrotestosterone): 27.6%
Compound: CC(C)(C)NC(=O)[C@H]1CC[C@H]2[C@@H]3CC[C@H]4NC(=O)C=C[C@]4(C)[C@H]3CC[C@]12C [Positive control, finasteride, reference compound]

Compound: CC1=C(/C=C/C(C)=C/C=C/C(C)=C/C(=O)O)C(C)(C)CCC1 [Retinoic acid, retinoic acid]
Collagenase expression level(%) [10]: 75%

Compound: TGF-β
Collagen synthesis ability (%) [11]: 183.5%
